# Patent publication US6376666B1 (Nauchno-Issledovatelsky Institut Farmakologii Rossiiskoi …, priority 1994, dated 2002)
# “And” between values parts separate entries of the source, which are not always exact repeats. Identical values can stand only once. “Also recorded” adds a separate entry of the source. Marks after values point to notes of the source that are not given here.
# How the values were obtained:
# adrenaline arrhythmia = adrenaline arrhythmia in concious rabbits; conditions: given 2 min before arrhythmogenic dose of adrenaline
# Method: Adrenaline arrhythmia. The 0,1% solution of adrenaline hydrochloride was injected to the marginal ear's vein of rabbit weighing 2,5-3,0 kg at dose ranging 120-150 mcg/kg which induced cardiac rhythm disturbances of two types.
# The tested compound was injected in 3 ml of distilled water 30 min after determination of arrhythmogenic dose of adrenaline and the ECG was recorded in 2nd standard lead. 2 min after administration of tested compound the arrhythmogenic dose of adrenaline was injected.
# [1] = system: ventricular disturbances of heart rhythm; experiment: arrhythmia in concious dogs according to Harris; format: in vivo; conditions: for antiarrhythmic effect, in words: concious dogs with ventricular disturbances of heart rhythm; for antiarrhythmic effect, in words / effect on heart rate, in words / tolerability / side effects, in words: i.v.; for % ectopic contractions, change vs basal level / Heart rate, change vs basal level / effect on heart rate, in words / tolerability / side effects, in words: concious dogs; for % ectopic contractions, change vs basal level / Heart rate, change vs basal level: 2 mg/kg i.v.; for % of the ectopic contractions / heart rate: concious dogs according to Harris, compound XX 1.0 mg/kg i.v., individual dogs
# Method: The arrhythmia in concious dogs according to Harris. The experiments were conducted in mongrel dogs of either sex weighing 9-14 kg. Under anesthesia (40 mg/kg of nembutal i.v.) and artificial respiration the two-step occlusion of the left anterior descending coronary artery was performed. The constant ECG disturbances of the heart rhythm were recorded after 24 hours. […] T-Student' test was used for statistical calculation.
# aconitine arrhythmia = experiment: animal or person; format: in vivo, rats; conditions: for ED50: Rattus norvegicus, iv, read-out: Aconitine arrhythmia ED50
# Method: Aconitine arrhythmia. The aconitine arrhythmia was induced in concious rats weighing 180-200 g by the injection in tail vein of the aconitine sulfate solution at dose range of […]. […] The tested compounds were administered i.v. 3 min prior aconitine injection. The ED50 value was calculated according to Litchfield's method.
# [2] = system: calcium chloride arrhythmia; experiment: calcium chloride arrhythmia in concious rats; format: in vivo; conditions: for ED50: Rattus norvegicus, iv, read-out: Calcium chloride arrhythmia ED50 (mean effective dose); for effect on death from lethal ventricular fibrillation, in words: injected 2 min prior calcium chloride
# Method: In these experiments the outbred concious rats 180-200 g of weight were injected with 10% solution of calcium chloride in tail vein at dose range of 250-300 mg/kg.
# [3] = system: ventricular fibrillations; experiment: ventricular fibrillation, 7-min occlusion and reperfusion of coronary artery in anesthetized rats; format: in vivo; conditions: for Number of VF (ventricular fibrillations) / Number of LHA (lethality hazardous arrhythmia) / Total numbers of arrhyt. / Severity of arrhythmias: anesthetized rats; for Number of VF (ventricular fibrillations): control 15 of 24; for Number of LHA (lethality hazardous arrhythmia): control 22 of 24; for Total numbers of arrhyt.: control 24 of 24; for Severity of arrhythmias: control 66
# Method: The experiments were conducted in male rats weighing 180-240 g and anesthetized with nembutal (60 mg/kg i.v.) with open chest and artificial respiration. The occlusion of the left coronary artery was performed 1-2 min after experiment beginning with following reperfusion after 7 min. During this period time according to literature data [Krzeminski T., Grzyb J., Kurcok A., Brus R.: Pol.J.Pharmacol., 1992, 44, Suppl., p.169-170] the maximum number of ventricular fibrillations (70-100%) were registered. The ECG in the 2nd standard lead was recorded in “Mingograph-81”. The number of ventricular fibrillations during occlusion and reperfusion periods, the life menacing arrhythmia (fibrillation+paroxysmal ventricular tachycardia) and total number of arrhythmias were calculated. The known antiarrhythmic drug bonnecor was used as the reference agent [Grigorieva E. K., Gorbunova V. V. in: “New antiarrhythmic drug—bonnecor (the pharmacology and clinical usage)”, M., 1993, p.64-67]. The compounds were injected i.v. at the following doses: bonnecor—1,0 mg/kg, compound IX—2,0 mg/kg, compound XX—1,0 mg/kg. The control animals were administered with the equivalent volume of physiological solution (1,0 ml/kg). 4 series of experiments were carried out in 80 rats. The results were assessed according to the method of point scale: the absence of arrhythmia—0 point, extrasystole—1 point, paroxysmal ventricular tachycardia—2 points, ventricular fibrillation—3 points, fibrillation observed during the occlusion of coronary vessel—4 points. For statistical analysis the Fisher's exact probability and Wilconson's methods were used.
# [Krzeminski T., Grzyb J., Kurcok A., Brus R.: Pol.J.Pharmacol., 1992, 44, Suppl., p.169-170] have shown that 7 min occlusion with following reperfusion of coronary artery in anesthetized rats produced the ventricular fibrillation (68-100%). Defibrotide and prostacycline decreased the number of fibrillations. We have studied the antifibrillator activity of some derivatives of 2-mercaptbenzimidazole in this model with disturbances of heart rhythm. Bonnecor (1,0 mg/kg) was used as the reference drug. It is well known that this agent produces apronouncedantifibrillatoryactivity [Grigorieva E. K., Gorbunova V. V. in: “New antiarrhythmic drug-bonnecor (the pharmacology and clinical usage)”, M., 1993, p.64-67].
# [4] = concious rats, given 2 min prior calcium chloride 250-300 mg/kg i.v.
# [5] = 10 min after compound injection
# [6] = 15 min after compound injection
# [7] = 20 min after compound injection
# [8] = 30 min after compound injection
# [9] = 40 min after compound injection
# [10] = 50 min after compound injection
smiles,measurement,setting,value
"CCOc1ccc2nc(SCCN(CC)CC)[nH]c2c1 [Compound IX, 2-[2-(Diethylamino)ethylthio]-5-ethoxybenz-imidazole]",Adrenaline arrhythmia. Range of active doses,adrenaline arrhythmia,0.3 to 0.7 mg/kg
same,"antiarrhythmic effect, in words",[1],pronounced antiarrhythmic effect
same,"% ectopic contractions, change vs basal level",[1]; after 3 min,−44.8 ± 15.0 %
same,"Heart rate, change vs basal level",[1]; after 3 min,+3.2 ± 8.4 beats/min
same,"% ectopic contractions, change vs basal level",[1]; after 5 min,−43.8 ± 13.3 %
same,"Heart rate, change vs basal level",[1]; after 5 min,−5.2 ± 9.2 beats/min
same,"% ectopic contractions, change vs basal level",[1]; after 10 min,−59.4 ± 7.8 %
same,"Heart rate, change vs basal level",[1]; after 10 min,−14.6 ± 12.0 beats/min
same,"% ectopic contractions, change vs basal level",[1]; after 20 min,−41.4 ± 8.1 %
same,"Heart rate, change vs basal level",[1]; after 20 min,−16.4 ± 6.6 & beats/min
same,"% ectopic contractions, change vs basal level",[1]; after 30 min,−24.8 ± 5.8 %
same,"Heart rate, change vs basal level",[1]; after 30 min,−5.6 ± 2.1 & beats/min
same,"% ectopic contractions, change vs basal level",[1]; after 60 min,−17.2 ± 9.1%
same,"Heart rate, change vs basal level",[1]; after 60 min,−5.2 ± 4.1 & beats/min
same,duration of antiarrhythmic effect,"[1]; concious dogs, 2,0 mg/kg i.v.",50 min
same,"effect on heart rate, in words",[1],gradual bradycardia
same,"tolerability / side effects, in words",[1],no side effects
same,LD50/ED50 (antiarrhythmic index),aconitine arrhythmia; LD50 i.v. / ED50 aconitine arrhythmia,"26,2"
same,ED50,aconitine arrhythmia,1.2 mg/kg
same,"activity relative to lidocaine, aconitine arrhythmia","aconitine arrhythmia; rats, higher than lidocaine","6,5 folds"
same,"activity relative to quinidine, aconitine arrhythmia","aconitine arrhythmia; rats, higher than quinidine","4,4 folds"
same,ED50,[2]; [4],1 mg/kg
same,"effect on death from lethal ventricular fibrillation, in words",[2]; concious rats,prevents the death of animals
same,"activity relative to lidocaine, calcium chloride arrhythmia","[2]; rats, higher than lidocaine","7,5 folds"
same,"activity relative to novocainamide, calcium chloride arrhythmia","[2]; rats, higher than novocainamide",50 folds
same,"antifibrillatory effect, in words","[3]; anesthetized rats i.v., bonnecor 1,0, IX 2,0, X (printed) 1,0 mg/kg",reduced the number of both the ventricular fibrillations and lethality hazardous arrhythmia
same,Number of VF (ventricular fibrillations),"[3]; 2 mg/kg i.v., 20 animals",4*
same,Number of LHA (lethality hazardous arrhythmia),"[3]; 2 mg/kg i.v., 20 animals",12*
same,Total numbers of arrhyt.,"[3]; 2 mg/kg i.v., 20 animals",17^
same,Severity of arrhythmias,"[3]; 2 mg/kg i.v., 20 animals",32** points
"CN(C)CCSc1nc2ccccc2n1CCc1ccccc1 [Compound XX, 1-(β-Phenylethyl)-2-[2-(dimethylamino)ethylthio]-benzimidazole]",Adrenaline arrhythmia. Range of active doses,adrenaline arrhythmia,0.2−0.7 mg/kg
same,% of the ectopic contractions,[1]; 3 min after compound injection,64% and 30% and 72% and 80%
same,heart rate,[1]; 3 min after compound injection,93 beats/min and 172 beats/min and 145 beats/min and 103 beats/min
same,% of the ectopic contractions,[1]; 5 min after compound injection,52% and 20% and 63% and 82%
same,heart rate,[1]; 5 min after compound injection,89 beats/min and 167 beats/min and 138 beats/min and 98 beats/min
same,% of the ectopic contractions,[1]; [5],50% and 18% and 60% and 81%
same,heart rate,[1]; [5],102 beats/min and 163 beats/min and 129 beats/min and 75 beats/min
same,% of the ectopic contractions,[1]; [6],51% and 0% and 58% and 91%
same,heart rate,[1]; [6],88 beats/min and 159 beats/min and 125 beats/min and 100 beats/min
same,% of the ectopic contractions,[1]; [7],56% and 0% and 66% and 92%
same,heart rate,[1]; [7],74 beats/min and 155 beats/min and 132 beats/min and 78 beats/min
same,% of the ectopic contractions,[1]; [8],62% and 10% and 74% and 91%
same,heart rate,[1]; [8],94 beats/min and 168 beats/min and 135 beats/min and 117 beats/min
same,% of the ectopic contractions,[1]; [9],66% and 8% and 79% and 97%
same,heart rate,[1]; [9],105 beats/min and 185 beats/min and 148 beats/min and 106 beats/min
same,% of the ectopic contractions,[1]; [10],63% and 10% and 81% and 94%
same,heart rate,[1]; [10],128 beats/min and 198 beats/min and 159 beats/min and 109 beats/min
same,"antiarrhythmic effect, in words",[1],pronounced antiarrhythmic effect
same,"effect on heart rate, in words",[1],pronounced bradycardia
same,"tolerability / side effects, in words",[1],well tolerated by the animals; also recorded: no side effects
same,ED50,aconitine arrhythmia,< 0.5 mg/kg
same,ED50,[2]; [4],2.03 mg/kg
same,Calcium chloride arrhythmia ED50 (mean effective dose),[2]; [4],2.0 mg/kg
same,"effect on death from lethal ventricular fibrillation, in words",[2]; concious rats,prevents the death of animals
same,Number of VF (ventricular fibrillations),"[3]; 1 mg/kg i.v., 18 animals",7^
same,Number of LHA (lethality hazardous arrhythmia),"[3]; 1 mg/kg i.v., 18 animals",11*
same,Total numbers of arrhyt.,"[3]; 1 mg/kg i.v., 18 animals",13**
same,Severity of arrhythmias,"[3]; 1 mg/kg i.v., 18 animals",34* points
